The text below walks through data of patent US20260224714A1, “CYCLING LYSOSOMAL TARGETING ANTIBODY CONJUGATES” (Lycia Therapeutics, Inc., priority 2023, published 2026).

Assay type in all cases: cell-based
For test [1], the system named is Alexa Fluor647 labelled human IgE. Briefly: Uptake assay: internalization of Alexa Fluor 647 labelled IgE in wild type HepG2 cells (Example 6). Conditions: equimolar conjugate and AF647 IgE, 2 hours, median cellular AF647 intensity by flow cytometry, normalized to unconjugated parent protein. Here is the method:
(§1) The following experiments were performed with HepG2 hepatocellular carcinoma cells, grown in Eagle's Minimal Essential Media (EMEM) supplemented with 10% FBS and penicillin/streptomycin.
(§2) HepG2 cells (25,000) were plated in 96-well plates 48 hours before the experiment was performed. On the day of the experiment, indicated the conjugate was mixed with an equimolar stock of Alexa Fluor647 labelled human IgE (Enzo Life Sciences, BPD-DIA-HE 1) in fresh EMEM as a 600 nM stock. The precomplexed conjugate:IgE mixture was incubated at room temperature for 30 minutes. During the precomplexing step, media from HepG2 was removed, and 40 ul of EMEM with 1/100 Fc Receptor Blocking Solution (Biolegend Human TruStain FcX, 422302) was added. Cells incubated in the receptor blocking solution for 10 minutes while making serial dilutions (1:3) of conjugate:IgE stock solution in EMEM. 40 ul of the conjugate:IgE mixture in EMEM was then added to cells (six dilutions, with final concentrations ranging from 300 nM to 1.23 nM) for 2 hours before washing with DPBS and detaching with 0.25% Trypsin/EDTA. Cells were pelleted in 96-well conical bottom plates, washed once with FACS Buffer with BSA (Rockland Immunochemicals), and resuspended in FACS Buffer with BSA. Uptake of fluorescently labelled IgE was measured by analyzing median cellular AF647 intensity by flow cytometry.
(§3) Cells were incubated with equimolar ratio of conjugate and AF647 IgE at indicated concentrations, with data normalized to unconjugated parent protein (Oma S35HWY57H-LC).

A further test has as its system recombinant IgE. Briefly: Degradation of super-stoichiometric levels of target in HepG2 cells (Example 13, Table 31). The settings on record: 1 nM conjugate and 25 nM IgE for three days, (A-B)/C IgE depleted relative to conjugate, average of two replicate wells. On the procedure: as §1
For evaluation of compounds in a high throughput format, 25,000 HepG2 cells were plated in a 96-well plate. The following day, 50 ul of 1 nM conjugate and 25 nM recombinant IgE in EMEM were added to the cells. 50 ul of the initial stock of conjugate:IgE was saved to quantify for an initial time point. Three days later, the media was collected from cells, and both initial and 72 hour time points were quantified for IgE concentration using the MSD assay.
HepG2 cells were incubated in media containing 1 nM conjugate and 25 nM IgE for three days. Concentrations of IgE at beginning and end of experiment were quantified by ELISA-based assay. Molar equivalents of IgE depleted relative to conjugate added are shown, calculated as (A-B)/C, where A is the initial concentration of IgE, B is the concentration of IgE at day three, and C is the concentration of conjugate. Reported values are the average of the values of two replicate wells.

The next test deals with HepG2 cells. The test is described as follows: Externalization of conjugates from a cell following internalization (cycling), high-throughput format (Example 11). The settings on record: 50 nM conjugate 1 hour, stringent washes, Alexa Fluor 647-labelled a-human IgG 1 hour, FACS, normalized to unconjugated parent protein, average of two replicate wells. On the procedure: as §1
The method was also adapted to a high-throughput format. In this assay, 25,000 HepG2 cells were plated in 96-well plates 48 hours before performing the experiment. The day of the experiment, cells were incubated with conjugate at indicated concentrations for 1 hour. Cells were then placed on ice to prevent trafficking/recycling during wash steps, and washed once with DPBS, once with sodium acetate buffer (20 mM, 150 mM NaCl, pH 5.2), once with Earle's Balanced Salt Solution (EBSS) adjusted to pH 2.5, and once again with DPBS, to remove conjugate from media and cell surface. Afterwards, 100 ul of prewarmed (to 37° C.) EMEM with 1 μg/ml of human a-IgG antibody conjugated to Alexa Fluor647 fluorophores was added to cells for 1 hour before washing with DPBS and detaching with 0.25% Trypsin/EDTA. Cells were pelleted in 96-well conical bottom plates, washed once with FACS Buffer with BSA (Rockland Immunochemicals), resuspended FACS Buffer with BSA and median AF647 intensity was analyzed by flow cytometry. The amount of conjugate capable of cycling to the cell surface (being externalized from the cell) and binding to the Alexa Fluor647 labelled α-IgG was measured by analyzing median cellular 647 fluorescence intensity by flow cytometry. […]. Reported values are the average of the values of two replicate wells.

The subject of a further test is human IgE. Briefly: Degradation of initial and subsequent dose of target in HepG2 cells (Example 12, Table 30). The settings on record: normalized to unconjugated; for Normalized Fluorescence Post Wash Median Green: after wash, probe-conjugated IgE added for 4 hours, subsequent dose of target; for Normalized Fluorescence Precomplex Median Deep Red: precomplexed equimolar conjugate:IgE (cathepsin-cleavable quenched fluorescent probe) added for 2 hours, initial dose of target. On the procedure:
as §1
HepG2 cells (25,000) were plated in 96-well plates 48 hours before performing the experiment. On the day of the experiment, indicated conjugate was diluted in fresh EMEM as a 2× stock, and mixed with an equimolar stock of human IgE (Enzo Life Sciences, BPD-DIA-HE 1) conjugated to a cathepsin-cleavable quenched fluorescent probe. The precomplexed conjugate:IgE mixture was incubated at 37 degrees Celsius for 30 minutes. Media from HepG2 was removed, and conjugate:IgE mixture in EMEM was added to cells for 2 hours. Cells were then placed on ice to prevent trafficking/recycling during wash steps, and washed once with DPBS, once with sodium acetate buffer (20 mM, 150 mM NaCl, pH 5.2), once with Earle's Balanced Salt Solution (EBSS) adjusted to pH 2.5, and once again with DPBS, to remove conjugate from media and cell surface. Afterwards, 100 ul of prewarmed (to 37 degrees Celsius) EMEM with cathepsin-cleavable quenched fluorescent probe-conjugated IgE was added to cells for 4 hours before washing with DPBS and detaching with 0.25% Trypsin/EDTA. Cells were pelleted in 96-well conical bottom plates, washed once with FACS Buffer with BSA (Rockland Immunochemicals), resuspended FACS Buffer with BSA and median 488 and 647 intensity was analyzed by flow cytometry. Delivery of labelled IgE to the lysosome and subsequent cleavage of initial precomplexed IgE was measured by analyzing median cellular 647 intensity, while cleavage of the post wash addition of IgE, which should only be degraded by recycling conjugates which released the first round of precomplexed IgE, was analyzed by median cellular 488 intensity. HepG2 cells were treated with human IgE (Enzo Life Sciences, BPD-DIA-HE1) conjugated to a cathepsin-cleavable quenched deep red (647) fluorescent probe precomplexed to conjugate fortwo hours, then washed, and fresh media with IgE conjugated to a green (488) cathepsin-cleavable fluorescent probe was then added without conjugate. […] Fluorescence values were measured by FACS and normalized to unconjugated parent protein. Reported values are the average of the values of two replicate wells.

For test [2], the system named is LysoLight-labelled human IgE. The test is described as follows: Lysosomal degradation of LysoLight-labelled IgE in HepG2 cells, live cell imaging (Example 7). The settings on record: equimolar conjugate:LysoLight IgE, area under the curve of deep red fluorescence over three days, normalized to unconjugated parent protein. On the procedure: as §1
HepG2 cells (15,000) were plated in 96-well plates 72 hours before performing the experiment. On the day of the experiment, indicated the conjugate was diluted in fresh EMEM and mixed with an equimolar stock of LysoLight-labelled human IgE (Enzo Life Sciences, BPD-DIA-HE1), at 200 nM of each compound. The precomplexed conjugate:IgE mixture was incubated at room temperature for 30 minutes. During the precomplexing step, media from HepG2 was removed, and 40 ul of EMEM with 1/100 Fc Receptor Blocking Solution (Biolegend Human TruStain FcX, 422302) was added. Cells incubated in the receptor blocking solution for 10 minutes while making serial dilutions (1:3) of conjugate:IgE stock solution in EMEM. 40 ul of the conjugate:IgE mixture in EMEM was then added to cells (five dilutions, with final concentrations ranging from 100 nM to 1.23 nM). Cells were placed in an IncuCyte Live-Cell Analysis System (Sartorius) for long term live cell imaging analysis (10× magnification, 3 images per well). One hour after addition of compound, image acquisition to measure red fluorescence from the LysoLight probe was started, with further Images collected every hour for 72 hours. Fluorescence of the LysoLight probe only occurs when cleaved by lysosomal cathepsin proteases, confirming lysosomal delivery and degradation of target. After 72 hours, mean red fluorescence was measured for each time point, and the area under the curve of fluorescence overtime was used to measure total degradation over the 3-day time period.

Test [3] deals with Alexa Fluor647 labelled human IgE. Briefly: Uptake assay: internalization of Alexa Fluor 647 labelled IgE in ASGPR1/2 KO HepG2 cells (Example 6). Conditions: equimolar conjugate and AF647 IgE, normalized to unconjugated parent protein. On the procedure: as §1, §2, §3

Structures are written as SMILES.

Turning to `CC(=O)N[C@@H]1[C@@H](O)[C@@H](O)[C@@H](CO)O[C@@H]1CCCOCCOCCNC(=O)NCCCC(CCCNC(=O)NCCOCCOCCC[C@H]1O[C@H](CO)[C@H](O)[C@H](O)[C@H]1NC(C)=O)(CCCNC(=O)NCCOCCOCCC[C@H]1O[C@H](CO)[C@H](O)[C@H](O)[C@H]1NC(C)=O)NC(=O)NCCOCCOCCOCCNS(=O)(=O)c1ccc(N2C(=O)C=CC2=O)cc1` [Compound 2315], in test [1], the “Normalized Fluorescence 3.7 nM WT” value was 77.7 and the “Normalized Fluorescence 100 nM WT” value was 275.7. Also, the “Average Degradation (Molar equivalents)” value in the test on recombinant IgE was found to be 4.5 Molar equivalents. Moreover, the “Normalized Fluorescence” value with HepG2 cells is reported as 48.8. Moreover, in the test on human IgE, the “Normalized Fluorescence Post Wash Median Green” value is 3.1 and the “Normalized Fluorescence Precomplex Median Deep Red” value is 3.3. For the same compound, in test [2], the “Normalized Fluorescence 3.7 nM” value is on record as 15.6 and the “Normalized Fluorescence 100 nM” value came to 4.0. Moreover, the “Normalized Fluorescence 100 nM ASGPR KO” value in test [3] was determined as 1.1.

Consider `O=C(CCOCCOCCOCCNS(=O)(=O)c1ccc(N2C(=O)C=CC2=O)cc1)NC(CCCNC(=O)NCCOCCOCCOCc1csc(N[C@H]2CO[C@H](CO)[C@H](O)[C@@H]2O)n1)(CCCNC(=O)NCCOCCOCCOCc1csc(N[C@H]2CO[C@H](CO)[C@H](O)[C@@H]2O)n1)CCCNC(=O)NCCOCCOCCOCc1csc(N[C@H]2CO[C@H](CO)[C@H](O)[C@@H]2O)n1` [Compound 2310], for which, in test [1], the “Normalized Fluorescence 3.7 nM WT” value amounted to 30.3 and the “Normalized Fluorescence 100 nM WT” value was 127.9. Further, in the test with recombinant IgE, the “Average Degradation (Molar equivalents)” value was found to be 4.0 Molar equivalents. For the same compound, the “Normalized Fluorescence” value with HepG2 cells is recorded as 16.6. Moreover, in the test with human IgE, the “Normalized Fluorescence Post Wash Median Green” value stood at 2.0 and the “Normalized Fluorescence Precomplex Median Deep Red” value amounted to 2.3. In test [2], the “Normalized Fluorescence 3.7 nM” value turned out to be 4.3 and the “Normalized Fluorescence 100 nM” value is reported as 2.4. In test [3], the “Normalized Fluorescence 100 nM ASGPR KO” value was 1.1.

On to `CC(=O)N[C@@H]1[C@@H](O)[C@@H](O)[C@@H](CO)O[C@@H]1CCCOCCOCCNC(=O)NCCCC(C)(CCCNC(=O)NCCOCCOCCC[C@H]1O[C@H](CO)[C@H](O)[C@H](O)[C@H]1NC(C)=O)NC(=O)NCCOCCOCCOCCNC(=O)c1ccc(N2C(=O)C=CC2=O)cc1` (stereo partly drawn) [Compound 2318, N,N′-((2R,2′R,3R,3′R,4R,4′R,5R,5′R,6R,6′R)-(16-(3-(1-(4-(2,5-dioxo-2,5-dihydro-1H-pyrrol-1-yl)phenyl)-1-oxo-5,8,11-trioxa-2-azatridecan-13-yl)ureido)-16-methyl-11,21-dioxo-4,7,25,28-tetraoxa-10,12,20,22-tetraazahentriacontane-1,31-diyl)bis(4,5-dihydroxy-6-(hydroxymethyl)tetrahydro-2H-pyran-2,3-diyl))diacetamide], for which, in test [1], the “Normalized Fluorescence 3.7 nM WT” value stood at 44.1 and the “Normalized Fluorescence 100 nM WT” value was 159.1. Besides, the “Average Degradation (Molar equivalents)” value with recombinant IgE was 4.2 Molar equivalents. In the test on HepG2 cells, the “Normalized Fluorescence” value is on record as 27.4. Further, in the test on human IgE, the “Normalized Fluorescence Post Wash Median Green” value is given as 2.0 and the “Normalized Fluorescence Precomplex Median Deep Red” value worked out at 2.4. Besides, in test [2], the “Normalized Fluorescence 3.7 nM” value is 4.1 and the “Normalized Fluorescence 100 nM” value was determined as 2.1. For the same compound, the “Normalized Fluorescence 100 nM ASGPR KO” value in test [3] was found to be 1.0.

Take `CCC[C@H]1O[C@H](CO)[C@H](O)[C@H](O)[C@H]1Nc1nccc(OCCOCCOCCNC(=O)NCCCC(CCCNC(=O)NCCOCCOCCOc2ccnc(N[C@@H]3[C@@H](O)[C@@H](O)[C@@H](CO)O[C@@H]3CCC)n2)(CCCNC(=O)NCCOCCOCCOc2ccnc(N[C@@H]3[C@@H](O)[C@@H](O)[C@@H](CO)O[C@@H]3CCC)n2)NC(=O)CCOCCOCCOCCNS(=O)(=O)c2ccc(N3C(=O)C=CC3=O)cc2)n1` [Compound 2330]: in test [1], the “Normalized Fluorescence 3.7 nM WT” value was found to be 54.5 and the “Normalized Fluorescence 100 nM WT” value is reported as 166.6. Also, the “Average Degradation (Molar equivalents)” value in the test with recombinant IgE is 2.8 Molar equivalents. The “Normalized Fluorescence” value in the test with HepG2 cells was 42.9. In the test on human IgE, the “Normalized Fluorescence Post Wash Median Green” value worked out at 2.9 and the “Normalized Fluorescence Precomplex Median Deep Red” value is on record as 3.0. In addition, in test [2], the “Normalized Fluorescence 3.7 nM” value came out at 8.1 and the “Normalized Fluorescence 100 nM” value came to 2.4. Also, the “Normalized Fluorescence 100 nM ASGPR KO” value in test [3] was determined as 1.1.
